Measured values: article PMC12754617, “Ruthenium-enhanced curcumin derivatives target tumor growth and cancer-related inflammation in head and neck cancer models” (Frontiers in Oncology, 2025)
Read-outs that look alike come from different tables or passages of the source.

What was measured:
IL-8 = biological target: T1, IL-8 (Homo sapiens, UniProt P10145); test: Sandwich ELISA assay IL-8; format: binding; conditions: for Decrease of IL-8 concentration: 500 pg/mL IL-8
T1 construct: purchased PeproTech, Thermo Fisher Scientific
T1 sequence (P10145 21-99): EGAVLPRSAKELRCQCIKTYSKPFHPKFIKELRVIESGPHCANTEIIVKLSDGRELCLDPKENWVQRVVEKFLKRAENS
Description: (§1) Human ELISA kits for IL-6, IL-6R, and IL-8 (Sigma-Aldrich, Merck, Germany) were used to quantify cytokine levels after treatment with complex 3 or 4. Briefly, 96-well plates precoated with specific antibodies were used to capture IL-6, IL-6R, and IL-8 from samples. […] Each sample was supplemented with 500 pg/mL of IL-6/IL-6R/IL-8. Positive control wells contained only the IL-6/IL-6R/IL-8 standard (PeproTech, Thermo Fisher Scientific, Waltham, Massachusetts, USA). […] After incubation, wells were washed, and biotinylated antihuman antibodies were added, followed by washing and addition of HRP-conjugated streptavidin. Finally, the TMB substrate was added to develop a color proportional to the cytokine concentration, and the reaction was stopped with the stop solution. Absorbance was measured at 450 nm using an […] 200 PRO microplate reader (TECAN, Switzerland).

IKKβ = biological target: T2, IKKβ (Homo sapiens, UniProt O14920); test: IKKβ inhibition assay (IKKβ Kinase Assay Kit); format: biochemical
T2 construct: purchased BPS Bioscience
T2 sequence (O14920 1-756): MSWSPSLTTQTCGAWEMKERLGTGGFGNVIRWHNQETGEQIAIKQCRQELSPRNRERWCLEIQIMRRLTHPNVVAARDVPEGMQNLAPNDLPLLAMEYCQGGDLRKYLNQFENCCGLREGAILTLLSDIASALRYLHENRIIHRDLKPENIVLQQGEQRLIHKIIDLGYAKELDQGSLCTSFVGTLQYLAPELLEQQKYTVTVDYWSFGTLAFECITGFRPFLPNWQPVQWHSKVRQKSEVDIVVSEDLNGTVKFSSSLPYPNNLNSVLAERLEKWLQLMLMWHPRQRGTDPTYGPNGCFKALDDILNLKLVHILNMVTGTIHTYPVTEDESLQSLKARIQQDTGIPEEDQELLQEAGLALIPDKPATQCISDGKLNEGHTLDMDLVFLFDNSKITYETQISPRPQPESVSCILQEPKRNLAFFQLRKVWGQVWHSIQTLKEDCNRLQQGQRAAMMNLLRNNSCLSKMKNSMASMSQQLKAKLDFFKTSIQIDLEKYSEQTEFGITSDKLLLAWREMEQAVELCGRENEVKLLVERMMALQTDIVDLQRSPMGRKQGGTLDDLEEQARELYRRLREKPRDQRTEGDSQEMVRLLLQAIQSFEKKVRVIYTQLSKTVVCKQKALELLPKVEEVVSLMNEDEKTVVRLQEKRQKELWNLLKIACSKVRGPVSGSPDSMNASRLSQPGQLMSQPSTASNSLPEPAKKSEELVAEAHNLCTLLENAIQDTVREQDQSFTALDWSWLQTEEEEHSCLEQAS
Description: IκB kinase beta (IKKβ) inhibition was determined using the IKKβ Kinase Assay Kit (BPS Bioscience, San Diego, California, USA). […] Kinase-Glo® MAX (Promega, #V6071, Madison, Wisconsin, USA) was used as the detection reagent, with an incubation time of 15 min. Blank values were subtracted from all measurements. Luminescence was measured with an integration time of 1 s using a Spark Microplate Reader (Tecan, Switzerland).

IL-6R = biological target: T3, IL-6R (Homo sapiens, UniProt P08887); test: ELISA assay IL-6R; format: binding; conditions: 500 pg/mL IL-6R
T3 construct: purchased PeproTech, Thermo Fisher Scientific
T3 sequence (P08887 20-468): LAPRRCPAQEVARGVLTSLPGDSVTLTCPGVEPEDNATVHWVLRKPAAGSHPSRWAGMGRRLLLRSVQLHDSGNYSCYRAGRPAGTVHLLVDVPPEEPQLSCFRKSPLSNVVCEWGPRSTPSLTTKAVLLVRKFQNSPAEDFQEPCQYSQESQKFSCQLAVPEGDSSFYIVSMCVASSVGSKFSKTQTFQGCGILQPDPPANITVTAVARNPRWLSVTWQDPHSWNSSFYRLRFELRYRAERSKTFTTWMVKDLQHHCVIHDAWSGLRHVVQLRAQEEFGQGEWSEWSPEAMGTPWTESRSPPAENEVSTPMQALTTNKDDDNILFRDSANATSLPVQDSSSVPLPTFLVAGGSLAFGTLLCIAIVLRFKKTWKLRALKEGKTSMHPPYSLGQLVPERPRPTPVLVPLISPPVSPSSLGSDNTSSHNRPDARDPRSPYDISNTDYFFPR
Description: as §1

HGF = test: MTT viability assay; format: cell-based, human
Description: (§2) A colorimetric 3-(4,5-dimethylthiazolyl)-2,5-diphenyltetrazolium bromide (MTT) cell metabolic activity assay was used to assess the cytotoxicity of complexes 3 and 4. The cells (described above) were cultured under standard conditions. Cells were seeded in 96-well plates at a density of 10,000 cells per well (200 μL) and allowed to grow for 24 h. The medium was then replaced with medium containing complex 3 or 4 at a concentration ranging from 0 to 200 μM, and the cells were incubated for an additional 24, 48, and 72 h. Subsequently, the medium was replaced with MTT solution, consisting of yellow tetrazolium dye 3-(4,5-dimethylthiazol-2-yl)-2,5-diphenyltetrazolium bromide (Sigma-Aldrich, Merck, Germany), and incubated for 2 h at 37°C. The dye was then removed, and the resulting purple formazan formed in viable cells was dissolved in DMSO, followed by shaking for 30 s. Absorbance was measured at 570 nm using an […] 200 PRO microplate reader (TECAN, Männedorf, Switzerland). All experiments were performed in quadruplicate and repeated three times.
(§3) The cell inhibitory concentration (IC) was calculated using the equation IC = (Acomplex3/complex4 well/mean Acontrol wells) × 100%. The half-maximal inhibitory concentration (IC50) was determined from dose–response curves using GraphPad Prism 10 (GraphPad Software Inc., La Jolla, CA, USA). The selectivity index toward cancer cells was calculated as a ratio of the average IC50 value for HGF to the IC50 value for the corresponding cancer cell line.

Hep-2 = test: MTT viability assay; format: cell-based, human
Description: as §2, §3

CAL 27 = test: MTT viability assay; format: cell-based, human
Description: as §2, §3

TR146 = test: MTT viability assay; format: cell-based, human
Description: as §2, §3

SCC-9 = test: MTT viability assay; format: cell-based, human
Description: as §2, §3

Detroit 562 = test: MTT viability assay; format: cell-based, human
Description: as §2, §3

KB = test: MTT viability assay; format: cell-based, human
Description: as §2, §3

FaDu = test: MTT viability assay; format: cell-based, human
Description: as §2, §3

[1] = Hep-2, 24 h, read-out: IC50 24h
[2] = Hep-2, 48 h, read-out: IC50 48h
[3] = Hep-2, 72 h, read-out: IC50 72h
[4] = CAL 27, 24 h, read-out: IC50 24h
[5] = CAL 27, 48 h, read-out: IC50 48h
[6] = CAL 27, 72 h, read-out: IC50 72h
[7] = TR146, 24 h, read-out: IC50 24h
[8] = TR146, 48 h, read-out: IC50 48h
[9] = TR146, 72 h, read-out: IC50 72h
[10] = SCC-9, 24 h, read-out: IC50 24h
[11] = SCC-9, 48 h, read-out: IC50 48h
[12] = SCC-9, 72 h, read-out: IC50 72h
[13] = Detroit 562, 24 h, read-out: IC50 24h
[14] = Detroit 562, 48 h, read-out: IC50 48h
[15] = Detroit 562, 72 h, read-out: IC50 72h

Structure (SMILES) | IC50 (HGF; 24 h, read-out: IC50 24h) [µM] | IC50 (HGF; 48 h, read-out: IC50 48h) [µM] | IC50 (HGF; 72 h, read-out: IC50 72h) [µM] | IC50 (Hep-2; [1]) [µM] | IC50 (Hep-2; [2]) [µM] | IC50 (Hep-2; [3]) [µM] | IC50 (CAL 27; [4]) [µM] | IC50 (CAL 27; [5]) [µM] | IC50 (CAL 27; [6]) [µM] | IC50 (TR146; [7]) [µM] | IC50 (TR146; [8]) [µM] | IC50 (TR146; [9]) [µM] | IC50 (SCC-9; [10]) [µM] | IC50 (SCC-9; [11]) [µM] | IC50 (SCC-9; [12]) [µM] | IC50 (Detroit 562; [13]) [µM] | IC50 (Detroit 562; [14]) [µM] | IC50 (Detroit 562; [15]) [µM] | IC50 (KB; 24 h, read-out: IC50 24h) [µM] | IC50 (KB; 48 h, read-out: IC50 48h) [µM] | other results
Cc1ccc(C(C)C)cc1.Cc1ccc(C(C)C)cc1.O=C1C(=Cc2ccnc3ccccc23)COCC1=Cc1ccnc2ccccc12.[Cl][Ru][Cl].[Cl][Ru][Cl] [Complex 3] | 20.8 ± 3.95 | 13 ± 0.27 | 9.15 ± 1.2 | 12.7 | 11.1 ± 0.32 | 5.15 ± 0.07 | 22.5 ± 1.08 | 12.9 ± 2.56 | 6.35 ± 1.75 | 19.7 ± 4.82 | 11.3 ± 0.78 | 4.9 ± 0.42 | 4.7 | 2.85 ± 0.01 | 2.8 ± 0.01 | 12.3 ± 1.83 | 3.9 ± 0.13 | 3.5 ± 0.11 | 14.3 | 10.5 ± 0.43 | IL-8 reduction relative to curcumin (IL-8; 1 µM versus curcumin at 5 µM): roughly 1.5 fold; Decrease of IL-8 concentration (IL-8; 8 µM): approximately 40%; Reduction of IKKβ activity (IKKβ; 8 μM): about 40%; Decrease in IL-6R concentration (IL-6R; 8 μM): about 15%; IC50 (KB; 72 h, read-out: IC50 72h): 3.7 ± 0.42 µM; IC50 (FaDu; 24 h, read-out: IC50 24h): 8.65 µM; IC50 (FaDu; 48 h, read-out: IC50 48h): 5.75 ± 0.06 µM; IC50 (FaDu; 72 h, read-out: IC50 72h): 3.85 ± 0.24 µM
Cc1ccc(C(C)C)cc1.Cc1ccc(C(C)C)cc1.O=C1C(=Cc2cccnc2)CCC1=Cc1cccnc1.[Cl][Ru][Cl].[Cl][Ru][Cl] [Complex 4] | 28.2 ± 2.78 | 9 ± 1.68 | 13.9 ± 0.59 | 88 ± 4.03 | 21.2 ± 0.02 | 37.65 ± 0.36 | 27.1 ± 0.79 | 16.1 ± 0.57 | 33.3 ± 0.65 | 59.3 ± 3.24 | 16.8 ± 0.81 | 18.2 ± 1.07 | 14.3 | 16.6 ± 0.71 | 3.65 ± 0.4 | 21.7 ± 2.45 | 42.2 ± 0.62 | 18.1 ± 2.63 | 20.8 ± 0.77 | 25.2 ± 0.33 | Decrease of IL-8 concentration (IL-8; 15 µM): approximately 30%; Inhibition of IKKβ activity (IKKβ; 1 μM): approximately 30%; Decrease in IL-6R concentration (IL-6R; 15 μM): about 15%; IC50 (KB; 72 h, read-out: IC50 72h): 30.3 ± 0.65 µM; IC50 (FaDu; 24 h, read-out: IC50 24h): 25.9 ± 0.25 µM; IC50 (FaDu; 48 h, read-out: IC50 48h): 17.1 ± 2.24 µM; IC50 (FaDu; 72 h, read-out: IC50 72h): 21.6 ± 0.73 µM
